Columns and labels:
Italian ryegrass = experiment: Test A preemergence; assay type: in vivo, Lolium multiflorum
In short: (§1)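 Visual injury scored 0–100 (100 = complete control) against untreated controls about 10 days after treatment in a greenhouse. Test chemicals, formulated with surfactant in non-phytotoxic solvent, were sprayed on soil preemergence or on 2-10 cm, one- to two-leaf plants postemergence.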

galium = experiment: Test C preemergence; assay type: in vivo, Galium aparine; conditions: for Galium plant response rating: preemergence; for Plant response rating, Galium: Preemergence, scale 0 to 100, 0 no effect, 100 complete control
In short: (§2)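 Visual ratings on a 0–100 scale (100 = complete control) were made versus untreated controls after 13–15 greenhouse days. Chemicals in a surfactant-containing non-phytotoxic solvent were applied either preemergence to seeds in loam–sand soil or postemergence to 1- to 4-leaf plants 2–18 cm tall.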

yellow nutsedge [1] = experiment: Test C preemergence; assay type: in vivo, Cyperus esculentus; conditions: for Nutsedge, Yellow plant response rating: preemergence; for Plant response rating, Nutsedge, Yellow: Preemergence, scale 0 to 100, 0 no effect, 100 complete control
In short: as §2

johnsongrass [2] = experiment: Test C preemergence; assay type: in vivo, Sorghum halepense; conditions: for Johnsongrass plant response rating: preemergence; for Plant response rating, Johnsongrass: Preemergence, scale 0 to 100, 0 no effect, 100 complete control
In short: as §2

lambsquarters = experiment: Test C preemergence; assay type: in vivo, Chenopodium album; conditions: for Lambsquarters plant response rating: preemergence; for Plant response rating, Lambsquarters: Preemergence, scale 0 to 100, 0 no effect, 100 complete control
In short: as §2

giant foxtail [3] = experiment: Test A preemergence; assay type: in vivo, Setaria faberii
In short: as §1

large (Lg) crabgrass [4] = experiment: Test C preemergence; assay type: in vivo, Digitaria sanguinalis; conditions: for Crabgrass, Large plant response rating: preemergence; for Plant response rating, Crabgrass, Large: Preemergence, scale 0 to 100, 0 no effect, 100 complete control
In short: as §2

giant foxtail [5] = experiment: Test C preemergence; assay type: in vivo, Setaria faberii; conditions: for Foxtail, Giant plant response rating: preemergence; for Plant response rating, Foxtail, Giant: Preemergence, scale 0 to 100, 0 no effect, 100 complete control
In short: as §2

giant foxtail [6] = experiment: Test C postemergence; assay type: in vivo, Setaria faberii; conditions: for Plant response rating (0 to 100), Foxtail, Giant: postemergence; for Plant response rating, Foxtail, Giant: Postemergence, scale 0 to 100 (0 no effect, 100 complete control)
In short: as §2

large (Lg) crabgrass [7] = experiment: Test A postemergence; assay type: in vivo, Digitaria sanguinalis
In short: as §1

johnsongrass [8] = experiment: Test C postemergence; assay type: in vivo, Sorghum halepense; conditions: for Plant response rating (0 to 100), Johnsongrass: postemergence; for Plant response rating, Johnsongrass: Postemergence, scale 0 to 100 (0 no effect, 100 complete control)
In short: as §2

yellow nutsedge [9] = experiment: Test C postemergence; assay type: in vivo, Cyperus esculentus; conditions: for Plant response rating (0 to 100), Nutsedge, Yellow: postemergence; for Plant response rating, Nutsedge, Yellow: Postemergence, scale 0 to 100 (0 no effect, 100 complete control)
In short: as §2

chickweed = experiment: Test C postemergence; assay type: in vivo, Stellaria media; conditions: for Plant response rating (0 to 100), Chickweed: postemergence; for Plant response rating, Chickweed: Postemergence, scale 0 to 100 (0 no effect, 100 complete control)
In short: as §2

soybean = experiment: Test C postemergence; assay type: in vivo, Glycine max; conditions: for Plant response rating (0 to 100), Soybean: postemergence; for Plant response rating, Soybean: Postemergence, scale 0 to 100 (0 no effect, 100 complete control)
In short: as §2

[10] = 31 g ai/ha, 0 to 100 scale where 0 is no effect and 100 is complete control, visual, approximately 10 days
[11] = 16 g ai/ha, scale 0 to 100 (0 no effect, 100 complete control)
[12] = 125 g ai/ha, scale 0 (no effect) to 100 (complete control)
[13] = 62 g ai/ha, scale 0 (no effect) to 100 (complete control)
[14] = 250 g ai/ha, scale 0 (no effect) to 100 (complete control)
[15] = 125 g ai/ha, 0 to 100 scale where 0 is no effect and 100 is complete control
[16] = 500 g ai/ha, 0 to 100 scale where 0 is no effect and 100 is complete control

FCc1cccc(Oc2ncc(Cl)cn2)c1-n1cc(Cl)cn1 [Compound 250]
Plant response rating, Ryegrass, Italian (Italian ryegrass; [10]): 0
Ryegrass, Italian plant response rating (0 to 100 scale) (Italian ryegrass; 125 g ai/ha): 0
Galium plant response rating (galium; [11]): 0
Galium plant response rating (galium; [12]): 98
Plant response rating, Galium (galium; 62 g ai/ha): 70
Nutsedge, Yellow plant response rating (yellow nutsedge [1]; [11]): 0
Nutsedge, Yellow plant response rating (yellow nutsedge [1]; [12]): 5
Johnsongrass plant response rating (johnsongrass [2]; [11]): 0
Johnsongrass plant response rating (johnsongrass [2]; [12]): 70
Plant response rating, Johnsongrass (johnsongrass [2]; 62 g ai/ha): 35
Lambsquarters plant response rating (lambsquarters; [11]): 90
Lambsquarters plant response rating (lambsquarters; [12]): 100
Plant response rating, Lambsquarters (lambsquarters; 62 g ai/ha): 100
Plant response rating, Foxtail, Giant (giant foxtail [3]; [10]): 30
Foxtail, Giant plant response rating (0 to 100 scale) (giant foxtail [3]; 125 g ai/ha): 100
Crabgrass, Large plant response rating (large (Lg) crabgrass [4]; [11]): 75
Crabgrass, Large plant response rating (large (Lg) crabgrass [4]; [12]): 100
Plant response rating, Crabgrass, Large (large (Lg) crabgrass [4]; 62 g ai/ha): 98
Foxtail, Giant plant response rating (giant foxtail [5]; [11]): 5
Foxtail, Giant plant response rating (giant foxtail [5]; [12]): 100
Plant response rating, Foxtail, Giant (giant foxtail [5]; 62 g ai/ha): 100

Fc1cccc(Oc2ncc(Cl)cn2)c1-n1cc(OCC(F)(F)F)cn1 [Compound 270]
Plant response rating, Ryegrass, Italian (Italian ryegrass; [10]): 0
Ryegrass, Italian plant response rating (0 to 100 scale) (Italian ryegrass; 125 g ai/ha): 10
Galium plant response rating (galium; [11]): 70
Galium plant response rating (galium; [12]): 100
Plant response rating, Galium (galium; 62 g ai/ha): 95
Nutsedge, Yellow plant response rating (yellow nutsedge [1]; [11]): 0
Nutsedge, Yellow plant response rating (yellow nutsedge [1]; [12]): 45
Plant response rating, Nutsedge, Yellow (yellow nutsedge [1]; 62 g ai/ha): 15
Johnsongrass plant response rating (johnsongrass [2]; [11]): 0
Johnsongrass plant response rating (johnsongrass [2]; [12]): 95
Plant response rating, Johnsongrass (johnsongrass [2]; 62 g ai/ha): 40
Lambsquarters plant response rating (lambsquarters; [11]): 80
Lambsquarters plant response rating (lambsquarters; [12]): 100
Plant response rating, Lambsquarters (lambsquarters; 62 g ai/ha): 100
Plant response rating, Foxtail, Giant (giant foxtail [3]; [10]): 40
Foxtail, Giant plant response rating (0 to 100 scale) (giant foxtail [3]; 125 g ai/ha): 100
Crabgrass, Large plant response rating (large (Lg) crabgrass [4]; [11]): 50
Crabgrass, Large plant response rating (large (Lg) crabgrass [4]; [12]): 100
Plant response rating, Crabgrass, Large (large (Lg) crabgrass [4]; 62 g ai/ha): 100
Foxtail, Giant plant response rating (giant foxtail [5]; [11]): 5
Foxtail, Giant plant response rating (giant foxtail [5]; [12]): 100
Plant response rating, Foxtail, Giant (giant foxtail [5]; 62 g ai/ha): 100

FC(F)(F)c1cnn(-c2ccccc2Oc2ncc(Cl)cn2)c1 [Compound 16]
Plant response rating (0 to 100), Foxtail, Giant (giant foxtail [6]; 125 g ai/ha): 15
Plant response rating (0 to 100), Foxtail, Giant (giant foxtail [6]; 250 g ai/ha): 85
Plant response rating, Foxtail, Giant (giant foxtail [6]; 31 g ai/ha, 13 to 15 days): 5
Plant response rating, Foxtail, Giant (giant foxtail [6]; 62 g ai/ha): 10
Galium plant response rating (galium; [13]): 100
Galium plant response rating (galium; [12]): 100
Galium plant response rating (galium; [14]): 100
Plant response rating, Galium (galium; 31 g ai/ha): 95
Nutsedge, Yellow plant response rating (yellow nutsedge [1]; [13]): 25
Nutsedge, Yellow plant response rating (yellow nutsedge [1]; [12]): 65
Nutsedge, Yellow plant response rating (yellow nutsedge [1]; [14]): 65
Plant response rating, Nutsedge, Yellow (yellow nutsedge [1]; 31 g ai/ha): 15
Johnsongrass plant response rating (johnsongrass [2]; [13]): 85
Johnsongrass plant response rating (johnsongrass [2]; [12]): 100
Johnsongrass plant response rating (johnsongrass [2]; [14]): 100
Plant response rating, Johnsongrass (johnsongrass [2]; 31 g ai/ha): 0
Lambsquarters plant response rating (lambsquarters; [13]): 80
Lambsquarters plant response rating (lambsquarters; [12]): 80
Lambsquarters plant response rating (lambsquarters; [14]): 90
Plant response rating, Lambsquarters (lambsquarters; 31 g ai/ha): 20
Plant response rating, Crabgrass, Large (large (Lg) crabgrass [7]; [15]): 80
Plant response rating, Crabgrass, Large (large (Lg) crabgrass [7]; 500 g ai/ha, 0 to 100 scale, 0 no effect, 100 complete control): 100
Plant response rating (0 to 100), Johnsongrass (johnsongrass [8]; 125 g ai/ha): 10
Plant response rating (0 to 100), Johnsongrass (johnsongrass [8]; 250 g ai/ha): 10
Plant response rating, Johnsongrass (johnsongrass [8]; 31 g ai/ha, 13 to 15 days): 0
Plant response rating, Johnsongrass (johnsongrass [8]; 62 g ai/ha): 5
Plant response rating (0 to 100), Nutsedge, Yellow (yellow nutsedge [9]; 125 g ai/ha): 5
Plant response rating (0 to 100), Nutsedge, Yellow (yellow nutsedge [9]; 250 g ai/ha): 20
Plant response rating, Nutsedge, Yellow (yellow nutsedge [9]; 31 g ai/ha, 13 to 15 days): 5
Plant response rating, Nutsedge, Yellow (yellow nutsedge [9]; 62 g ai/ha): 5
Plant response rating (0 to 100), Chickweed (chickweed; 125 g ai/ha): 75
Plant response rating (0 to 100), Chickweed (chickweed; 250 g ai/ha): 90
Plant response rating, Chickweed (chickweed; 31 g ai/ha, 13 to 15 days): 40
Plant response rating, Chickweed (chickweed; 62 g ai/ha): 65
Foxtail, Giant plant response rating (giant foxtail [3]; [15]): 100
Foxtail, Giant plant response rating (giant foxtail [3]; 500 g ai/ha, 0 to 100 scale, 0 no effect, 100 complete control, approx. 10 days): 100
Crabgrass, Large plant response rating (large (Lg) crabgrass [4]; [13]): 100
Crabgrass, Large plant response rating (large (Lg) crabgrass [4]; [12]): 100
Crabgrass, Large plant response rating (large (Lg) crabgrass [4]; [14]): 100
Plant response rating, Crabgrass, Large (large (Lg) crabgrass [4]; 31 g ai/ha): 98
Foxtail, Giant plant response rating (giant foxtail [5]; [13]): 98
Foxtail, Giant plant response rating (giant foxtail [5]; [12]): 100
Foxtail, Giant plant response rating (giant foxtail [5]; [14]): 100
Plant response rating, Foxtail, Giant (giant foxtail [5]; 31 g ai/ha): 95
Plant response rating (0 to 100), Soybean (soybean; 125 g ai/ha): 90
Plant response rating (0 to 100), Soybean (soybean; 250 g ai/ha): 90
Plant response rating, Soybean (soybean; 31 g ai/ha, 13 to 15 days): 75
Plant response rating, Soybean (soybean; 62 g ai/ha): 85

COc1cnn(-c2c(C#N)cccc2Oc2ncc(Cl)cn2)c1 [Compound 137]
Plant response rating, Ryegrass, Italian (Italian ryegrass; [15]): 0
Ryegrass, Italian plant response rating (Italian ryegrass; [16]): 20
Galium plant response rating (galium; [11]): 5
Galium plant response rating (galium; [13]): 10
Galium plant response rating (galium; [12]): 95
Plant response rating, Galium (galium; 31 g ai/ha): 5
Nutsedge, Yellow plant response rating (yellow nutsedge [1]; [11]): 0
Nutsedge, Yellow plant response rating (yellow nutsedge [1]; [13]): 5
Nutsedge, Yellow plant response rating (yellow nutsedge [1]; [12]): 10
Johnsongrass plant response rating (johnsongrass [2]; [11]): 0
Johnsongrass plant response rating (johnsongrass [2]; [13]): 5
Johnsongrass plant response rating (johnsongrass [2]; [12]): 45
Lambsquarters plant response rating (lambsquarters; [11]): 100
Lambsquarters plant response rating (lambsquarters; [13]): 100
Lambsquarters plant response rating (lambsquarters; [12]): 100
Plant response rating, Foxtail, Giant (giant foxtail [3]; [15]): 90
Foxtail, Giant plant response rating (giant foxtail [3]; [16]): 100
Crabgrass, Large plant response rating (large (Lg) crabgrass [4]; [11]): 10
Crabgrass, Large plant response rating (large (Lg) crabgrass [4]; [13]): 98
Crabgrass, Large plant response rating (large (Lg) crabgrass [4]; [12]): 100
Plant response rating, Crabgrass, Large (large (Lg) crabgrass [4]; 31 g ai/ha): 70
Foxtail, Giant plant response rating (giant foxtail [5]; [11]): 35
Foxtail, Giant plant response rating (giant foxtail [5]; [13]): 60
Foxtail, Giant plant response rating (giant foxtail [5]; [12]): 90
Plant response rating, Foxtail, Giant (giant foxtail [5]; 31 g ai/ha): 5

N#Cc1cnn(-c2c(CF)cccc2Oc2ncc(F)cn2)c1 [Compound 151]
Plant response rating, Ryegrass, Italian (Italian ryegrass; [10]): 0
Plant response rating, Ryegrass, Italian (Italian ryegrass; [15]): 0
Nutsedge, Yellow plant response rating (yellow nutsedge [1]; [11]): 0
Nutsedge, Yellow plant response rating (yellow nutsedge [1]; [13]): 5
Nutsedge, Yellow plant response rating (yellow nutsedge [1]; [12]): 25
Johnsongrass plant response rating (johnsongrass [2]; [11]): 0
Johnsongrass plant response rating (johnsongrass [2]; [13]): 50
Johnsongrass plant response rating (johnsongrass [2]; [12]): 65
Lambsquarters plant response rating (lambsquarters; [11]): 100
Lambsquarters plant response rating (lambsquarters; [13]): 100
Lambsquarters plant response rating (lambsquarters; [12]): 100
Plant response rating, Foxtail, Giant (giant foxtail [3]; [10]): 100
Plant response rating, Foxtail, Giant (giant foxtail [3]; [15]): 100
Crabgrass, Large plant response rating (large (Lg) crabgrass [4]; [11]): 5
Crabgrass, Large plant response rating (large (Lg) crabgrass [4]; [13]): 98
Crabgrass, Large plant response rating (large (Lg) crabgrass [4]; [12]): 100
Plant response rating, Crabgrass, Large (large (Lg) crabgrass [4]; 31 g ai/ha): 85
Foxtail, Giant plant response rating (giant foxtail [5]; [11]): 5
Foxtail, Giant plant response rating (giant foxtail [5]; [13]): 80
Foxtail, Giant plant response rating (giant foxtail [5]; [12]): 100
Plant response rating, Foxtail, Giant (giant foxtail [5]; 31 g ai/ha): 35
